For 75 compounds, EC50, IC50 and outcome results are on record in PubChem BioAssay AID179 (DTP/NCI, 2004).

Activity calls are given as the source filed them.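 How the source made its calls: active means compounds giving half or more protection of infected cells from virus-caused growth loss, again on retest; inactive means the rest.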

In the experiment the test system is CEM cells HIV-1 protection, formazan growth assay. The experiment in a line: NCI AIDS Antiviral Assay. Particulars: for IC50: measured here: growth of uninfected CEM cells. A digest of the protocol: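 Category rules: moderately active means at least 50% protection on retest, and confirmed active means 100% protection reproducibly. The underlying data came from a formazan growth assay in HIV-1-infected CEM cells.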

The term EC50 denotes the concentration at which the effect is half-maximal. The term IC50 denotes the point on the concentration scale where inhibition reaches its midpoint. High values mean a need for much substance, low ones inhibition by little substance. With `O=P1(CCc2ccc(Cl)cc2)CC(Br)C(Br)C1` (stereo not given), the EC50 was greater than 631 µM and the IC50 was determined as 38 µM. The matching figures for `Nc1ncnc2c1ncn2[C@H]1CC(CO)CO1` (stereo not given in full): greater than 661 µM and greater than 661 µM. For `CC(=O)N(CCc1ccccc1)C(C#N)c1ccccc1` (stereo not given) the same measures were greater than 200 µM and greater than 200 µM.

Take `CC(C)(C)OC1=C(OC(C)(C)C)C(O)(c2ccccc2)C1=O` (stereo not given): the outcome was inactive.

In the case of `C(CCC[Te][Te]CCCCCCOC1CCCCO1)CCOC1CCCCO1` (stereo not given), the result was inactive. Turning to `CC(C)(C)c1cc2c(c(C(C)(C)C)c1O)CC(=O)O2`, the EC50 is greater than 200 µM and the 50% inhibitory concentration (IC50) worked out at 41.7 µM.

Consider `O=c1[nH]n(CCc2ccccn2)c(=O)c2ccccc12`, for which the EC50 was greater than 200 µM and the IC50 is greater than 200 µM.

Take `CCOC(=O)C(F)(F)C(=O)OCC`: the EC50 was greater than 200 µM and the IC50 is greater than 200 µM. For the compound `NC(=Nc1c([N+](=O)[O-])cnc2ccccc12)N1CCOCC1`, the EC50 is greater than 200 µM and the half-maximal inhibitory concentration (IC50) amounted to 126 µM. The matching figures for `CCOC(=O)C(NC(=O)CC)(Nc1ccc(S(=O)(=O)Nc2ncccn2)cc1)C(F)(F)F` (stereo not given): greater than 200 µM and greater than 200 µM. For `CN(CCN(C)C(=O)CCn1ccc(=O)[nH]c1=O)C(=O)CCn1ccc(=O)[nH]c1=O`, the EC50 was greater than 32.4 µM and the concentration for half-maximal inhibition (IC50) was greater than 32.4 µM.

Take `O=P1(Oc2ccccc2)OC[C@H]2S[C@H](c3ccccc3)C[C@H]2O1` (stereo not given in full): the EC50 is greater than 200 µM and the 50% inhibitory concentration (IC50) was greater than 200 µM.

As for `O=C1O[C@H]2CCC3=CC[C@@H](c4ccccc4)C=C1[C@H]32`, the outcome was inactive. Take `CC(C)(C)c1cc(C(O)(C(=O)O)C(=O)O)cc(C(C)(C)C)c1O`: the EC50 is greater than 200 µM and the IC50 was greater than 200 µM. Turning to `CC(=S)N/C=C(\C#N)S(=O)(=O)c1ccc(C)cc1`, the EC50 is greater than 200 µM and the IC50 was greater than 200 µM. `Cc1nc2cc(C(F)(F)F)ccc2[nH]c1=O`: the EC50 is greater than 200 µM and the IC50 was greater than 200 µM.

With `O=c1[nH]c2cc(F)c(F)cc2nc1Cc1ccccc1`, the EC50 is greater than 200 µM and the IC50 turned out to be 132 µM. Regarding `Cc1cc(N=Nc2cc(S(=O)(=O)O)c(N)cc2N)ccc1N=Nc1ccc2cc(S(=O)(=O)O)cc(S(=O)(=O)O)c2c1`, the outcome was inactive. As to `FC(F)(F)c1cccc(C=NC23CC4CC(CC(C4)C2)C3)c1`, the EC50 was greater than 17 µM and the half-maximal inhibitory concentration (IC50) was greater than 17 µM. As for `CCOC(=O)NC(=S)NN(C)C1=NCC(C)(C)S1`, the EC50 was greater than 200 µM and the IC50 was greater than 200 µM. As for `CC(C)(C)CP(=S)(CCP(CCP(=S)(CC(C)(C)C)CC(C)(C)C)CCP(=S)(CC(C)(C)C)CC(C)(C)C)CC(C)(C)C`, the EC50 was greater than 12.3 µM and the IC50 was greater than 12.3 µM. Take `NC(N)=NS(=O)(=O)c1ccc(N=c2c3ccccc3n(Cc3ccccc3)c3ccccc23)cc1`: the outcome was inactive. Regarding `CCSCCCCCCCCCCC(=O)OCC1OC(n2cc(C)c(=O)[nH]c2=O)CC1O` (stereo not given), the EC50 was greater than 56.2 µM and the IC50 was 26.3 µM. The matching figures for `C[C@@H]1c2ccc3c(c2C2(O)C[C@H]4CCC1N2C4)CC1[C@H]3C[C@@H](O)C2C[C@@H](O)CC[C@@]21C` (stereo not given in full): greater than 30.9 µM and greater than 30.9 µM.

For the compound `C#CC1NC(=O)C1N(CC)CC` (stereo not given), the result was inactive. For `O=C(/C=C/c1ccccc1Cl)c1ccc(Cl)c(Cl)c1`, the EC50 was greater than 8.71 µM and the IC50 was greater than 8.71 µM. With `CC(=O)c1ccc2c(ccc(=O)n2C)c1`, the EC50 is greater than 468 µM and the 50% inhibitory concentration (IC50) came out at 107 µM.

Consider `O=C(O)c1c(O)c2cc(Cl)ccc2oc1=O`, for which the EC50 was greater than 200 µM and the IC50 came to 158 µM. The matching figures for `CCOC(=O)C12CN(C34CC5CC(CC(C5)C3)C4)CC(C(=O)OCC)(C1=O)C(c1ccccc1)OC2c1ccccc1` (stereo not given): greater than 30.9 µM and 13.5 µM. The matching figures for `C=CCC1(C#N)C(=S)NC2=C(C(=O)CC(C)(C)C2)C1c1ccccc1` (stereo not given): greater than 200 µM and greater than 200 µM. Regarding `CC1=C(C)C2(OC1=O)C(O)C(C)[C@]1(O)CCC3C4CC=C5CC=CC(=O)[C@]5(C)C4C[C@@]2(O)[C@@]31C` (stereo not given in full), the outcome was inactive. For the compound `CCCCN(C(=O)c1ccccc1)C1CCC(=O)c2[nH]c3ccccc3c21` (stereo not given), the EC50 was greater than 200 µM and the IC50 amounted to 17 µM.

Turning to `CC1(C)CC(C)(C)C1=NNC(N)=O`, the EC50 was greater than 200 µM and the IC50 was greater than 200 µM. Turning to `Cc1c(O)ccc2c(O)c(NC(=O)c3ccc4c(c3)CCC(C)(C)O4)c(=O)oc12`, the EC50 was greater than 200 µM and the IC50 was 83.2 µM. The matching figures for `Clc1ccccc1C(c1ccccc1)(c1ccccc1)n1ccnc1`: greater than 200 µM and 21.4 µM. On to `NC(=O)c1c[se]c(C2OC(CO)C(O)C2O)n1` (stereo not given), for which the result was inactive. On to `C=C[Si](C)(C)COC(=O)/C(C#N)=C/C=C/c1ccccc1`, for which the EC50 was greater than 9.12 µM and the IC50 is greater than 9.12 µM. As for `OCC(O)C(OC1OC(CO)C(O)C(O)C1O)c1nn(-c2ccccc2)c2nc3cc(Cl)ccc3nc12` (stereo not given), the outcome was inactive.

Take `CN=C(Nc1ccc(OC)c2ccccc12)SC`: the EC50 is greater than 200 µM and the 50% inhibitory concentration (IC50) was greater than 100 µM. As to `CC1(C)C(N2CCOCC2)CS1(=O)=O` (stereo not given), the EC50 is greater than 200 µM and the IC50 was greater than 200 µM. As for `CN(C)c1ccc(/C=C2\C=Cc3ccccc32)cc1`, the outcome was inactive. `CC(=O)OCC1OC(n2c3c(cc(C#N)c2=O)CCCCCC3)C(OC(C)=O)C(OC(C)=O)C1OC(C)=O` (stereo not given): the EC50 was greater than 200 µM and the IC50 was determined as 170 µM. The matching figures for `Nc1ccc(C(=O)NN2C(=O)C(Cl)C2c2ccccc2)cc1` (stereo not given): greater than 200 µM and 47.9 µM. The matching figures for `COc1cc(-c2cc(O)c(-c3ccc4ccccc4n3)c(=O)[nH]2)cc(OC)c1OC`: greater than 0.933 µM and greater than 0.933 µM. Regarding `COC(=O)C(C)(C)NC(=O)C(Cc1ccccc1)Nc1ncnc2c1ncn2-c1ccc(OC)cc1` (stereo not given), the outcome was inactive and the IC50 stood at 56.2 µM. Turning to `Cc1cc(S(=O)(=O)Nc2nc3ccccc3[nH]2)c(S)cc1Cl`, the EC50 was greater than 200 µM and the concentration for half-maximal inhibition (IC50) worked out at 55 µM.

Regarding `Cc1ccc(C2(Br)C(=O)c3ccccc3C2=O)cc1`, the EC50 is greater than 200 µM and the IC50 is greater than 200 µM. Consider `O=C/C(=C(/Br)I)c1ccccc1`, for which the EC50 is greater than 200 µM and the IC50 came out at 1.26 µM. The matching figures for `CCC(=O)N(c1ccccc1)C(C)CN1CCC(O)(c2cccc(C(F)(F)F)c2)CC1` (stereo not given): greater than 200 µM and 74.1 µM. For `COC(=O)c1sc(=O)n(-c2ccccc2)c1SCc1ccccc1` the same measures were greater than 38 µM and greater than 38 µM. The matching figures for `O=C(Cc1ccc(OCc2cccc(Cl)c2)cc1)NO`: greater than 200 µM and 29.5 µM. As to `Cc1ccc(-c2n[nH]c(=O)n2N2C(=O)c3ccccc3C2=O)cc1`, the EC50 was greater than 200 µM and the IC50 was greater than 200 µM. As to `Cc1cc2nnn(C3CCCO3)c2cc1C` (stereo not given), the EC50 is greater than 200 µM and the IC50 is greater than 200 µM.

Take `c1cnc(SCc2nc3ccccc3o2)nc1`: the concentration for a half-maximal effect (EC50) is 38 µM and the IC50 was greater than 200 µM. For `Nc1ccc(-c2ccc(N)c(S(=O)(=O)O)c2)cc1S(=O)(=O)O` the same measures were greater than 724 µM and greater than 724 µM. For `C=CCON(C(=O)OC(C)(C)C)C(C)(C)C` the same measures were greater than 200 µM and greater than 200 µM.

With `O=C(O)/C(Cl)=C(\Cl)C(=O)NC1C2CC3CC(C2)CC1C3` (stereo not given), the outcome was inactive.

In the case of `CCC1(CC=C(C)C)Oc2cccnc2-n2cccc2C1=O` (stereo not given), the EC50 was greater than 200 µM and the concentration for half-maximal inhibition (IC50) was 117 µM. `O=C(NCC(=O)N1CCCC1C(=O)OC(=O)C1CCCN1C(=O)CNC(=O)OCc1ccccc1)OCc1ccccc1` (stereo not given): the 50% effective concentration (EC50) is greater than 38 µM and the concentration for half-maximal inhibition (IC50) is 30.2 µM. `O=c1cc(NNc2ccccc2)[nH]c(=S)[nH]1`: the EC50 is greater than 200 µM and the IC50 was determined as 12.3 µM. `N.N.N.N.O=N[O-].O=N[O-].O=[N+]([O-])[O-].[Co+3]`: the EC50 was greater than 200 µM and the IC50 was greater than 200 µM. Regarding `CCOP(=O)(CCP(=O)(OCC)OCC)OCC.C[CH2][Sn]([Cl])([Cl])[CH2]C`, the outcome was inactive. As for `C=C(CN(C)C)C1(c2ccccc2)CC2(CCCC2)C(=O)O1` (stereo not given), the EC50 is greater than 200 µM and the IC50 was determined as 38 µM. The matching figures for `C=CCN1/C(=C(\C#N)c2nc3ccccc3[nH]2)Sc2c1nc[nH]c2=O`: greater than 10.7 µM and greater than 10.7 µM. The matching figures for `CCC(c1ccc(Cl)cc1)N1CCC2(CC1)C(=O)NCN2c1ccccc1` (stereo not given): greater than 200 µM and greater than 200 µM. With `CC1=CC2=C(C(N)=O)C(=O)OC2(C)C(c2ccccc2)C1` (stereo not given), the EC50 was greater than 200 µM and the IC50 was greater than 200 µM. Regarding `O=C1Nc2ccccc2/C1=c1/sc2nc3ccccc3n2c1=O`, the outcome was inactive. As for `Cc1c(NC(=O)C(=O)N=NC(=O)c2ccncc2)c(O)c2ccccc2c1O`, the outcome was inactive. Consider `c1ccc(C[P+](c2ccccc2)(c2ccccc2)c2ccccc2)cc1`, for which the EC50 is greater than 200 µM and the IC50 amounted to 3.89 µM. In the case of `CN1C(=O)[C@@]2(C=CC3(CC2)OCCO3)c2ccccc21`, the EC50 was greater than 200 µM and the IC50 is 35.5 µM. The matching figures for `CCN(CC)CCOC(=O)CCN1CC2CCC(CC2)C1`: greater than 200 µM and greater than 200 µM.

Take `Cc1cccc2c1Oc1ncccc1C2NC(=O)CN(C)C` (stereo not given): the EC50 was greater than 200 µM and the half-inhibitory concentration (IC50) was greater than 200 µM. As to `NC(=O)c1ncn(C2CCC(CP(=O)(O)O)C2)c1N` (stereo not given), the EC50 was greater than 200 µM and the IC50 is greater than 200 µM.

For `O=C1/C(=C/c2ccccc2)CN(C(=O)OCc2ccccc2)C/C1=C\c1ccccc1`, the outcome was inactive. On to `CCN(CC)P1(=S)OCC(C)O1` (stereo not given), for which the EC50 is greater than 324 µM and the concentration for half-maximal inhibition (IC50) came out at 309 µM.
